Data published in ChEMBL document CHEMBL1201862, “PubChem BioAssay data set” (2004).
The source made the active and inactive calls.

What was measured:
[1] = microbe, parasite or virus in culture; format: functional; settings: Mycobacterium tuberculosis
[2] = HepG2 cell cytotoxicity, dose response, cytotoxicity control for non-replicating M. tuberculosis project (AID 489018); format: functional; settings: Mycobacterium tuberculosis
[3] = NIH3T3 cell viability loss – ATP luminescence, mouse fibroblasts, counter-screen, dose response (AID 2010); format: functional, cell-based;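 note: cells exposed to compound for about 90 hours before reading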
[4] = THP-1 cell cytotoxicity, dose response, cytotoxicity control for non-replicating M. tuberculosis project (AID 489025); format: functional
[5] = Vero E6 cell cytotoxicity, dose response, cytotoxicity control for non-replicating M. tuberculosis project, secondary assay (AID 492998); format: functional, VeroE6; settings: Vero C1008
[6] = Trypanosoma cruzi growth suppression in host cells – NIH3T3 host cells, beta-gal luminescence, confirmation (AID 2044); format: functional, cell-based;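 note: intracellular parasites grown in NIH/3T3 mouse fibroblasts as host cells; luminescent beta-galactosidase reporter signal from transgenic T. cruzi replicating inside host cells; inhibitors lower the luminescence signal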
[7] = molecular target: Dual specificity protein phosphatase 3 (Homo sapiens, UniProt P51452); assay: SAR VHR1 Fluorescent Assay for In Vitro dose response studies Set 3. [Related pubchem assays (depositor defined):AID1654, AID1661, AID1878]; format: functional
Sequence of Dual specificity protein phosphatase 3 (P51452 whole entry): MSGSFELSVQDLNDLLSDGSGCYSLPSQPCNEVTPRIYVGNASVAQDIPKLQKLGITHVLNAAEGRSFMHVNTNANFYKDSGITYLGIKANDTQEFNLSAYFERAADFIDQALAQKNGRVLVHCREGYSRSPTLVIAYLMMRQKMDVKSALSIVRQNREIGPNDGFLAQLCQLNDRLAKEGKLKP

[8] = molecular target: T1, Microphthalmia-associated transcription factor (Homo sapiens, UniProt O75030); assay: reducers of TRPM1 reporter luminescence, concentration series – cell-based, SK-MEL-5, cherry-picked, set 3, MITF inhibitor project, dose response (AID 493073); format: functional;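 note: SK-MEL-5 melanoma cells with luciferase driven by the MITF target TRPM1 promoter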
T1 sequence (O75030 whole entry): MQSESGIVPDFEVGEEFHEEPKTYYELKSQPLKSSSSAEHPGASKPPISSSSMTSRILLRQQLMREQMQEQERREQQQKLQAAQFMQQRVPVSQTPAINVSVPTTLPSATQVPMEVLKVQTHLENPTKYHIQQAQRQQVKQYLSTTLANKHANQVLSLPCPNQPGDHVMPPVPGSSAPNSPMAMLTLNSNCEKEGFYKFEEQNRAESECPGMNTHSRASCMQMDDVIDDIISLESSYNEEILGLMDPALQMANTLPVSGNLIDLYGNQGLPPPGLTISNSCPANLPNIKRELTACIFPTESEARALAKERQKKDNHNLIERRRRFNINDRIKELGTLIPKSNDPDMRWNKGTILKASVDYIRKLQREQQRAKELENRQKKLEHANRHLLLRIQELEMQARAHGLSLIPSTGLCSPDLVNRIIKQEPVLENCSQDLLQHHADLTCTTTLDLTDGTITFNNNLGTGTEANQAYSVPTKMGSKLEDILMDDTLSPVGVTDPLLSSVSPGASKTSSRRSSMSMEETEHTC

[9] = blockade of melanocortin 4 receptor signaling – cell-based, plate reader, cherry pick, counter-screen for LGR2 antagonist project, dose response (AID 743444); format: functional;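 note: transfected HEK 293 cells stimulated with alpha-MSH peptide; potency of inhibitors of the alpha-MSH evoked signal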
[10] = toxicity toward HepG2 liver cells – cell-based, plate reader, cherry-pick, antagonist series, cytotoxicity control, dose response (AID 743416); format: functional
[11] = viability loss in HEK293 cells – cell-based, plate reader, cherry-picked samples, cytotoxicity control, dose response (AID 743446); format: functional
[12] = blockers of bursicon-stimulated LGR2 cAMP reporter – cell-based, HEK293, CRE-luciferase reporter, cherry pick, set 2, dose response (AID 743343); format: functional;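 note: transfected cells were stimulated with diluted bursicon conditioned medium after compound addition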
A-375 = assay: MITF: Counter assay: A375 proliferation Measured in Cell-Based System Using Plate Reader - 2084-03_Inhibitor_Dose_DryPowder_Activity. [Related pubchem assays (depositor defined):AID488944]; format: functional; settings: Homo sapiens
[13] = A549 cell cytotoxicity, dose response, cytotoxicity control, plate reader, cherry-pick, antagonist series (AID 743412); format: functional, cell-based
Streptococcus = assay: GAS UMAA2166 growth inhibition – luminescence, BacTiterGlo, counter-screen for streptokinase expression inhibitor project, dose response (AID 1915); format: functional, organism-based;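 note: potency for reduction of bacterial viability or growth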
Escherichia coli = assay: microbe, parasite or virus in culture
[14] = test system: Streptococcus sp. 'group A'; assay: Streptococcus pyogenes SK(-)GAS viability under kanamycin – luminescence, BacTiterGlo, confirmation, counter-screen for streptokinase expression inhibitor project, dose response (AID 1900); format: functional, organism-based
Streptokinase A = molecular target: T2, Streptokinase A (Streptococcus pyogenes serotype M1, UniProt P10520); assay: viability-normalized secreted streptokinase activity reduction – plasminogen activation absorbance, OD405, dose response (AID 1914); format: functional, Streptococcus pyogenes M1 GAS;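 note: secreted streptokinase activity via plasminogen activation per viability signal from cell pellet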
T2 sequence (P10520 whole entry): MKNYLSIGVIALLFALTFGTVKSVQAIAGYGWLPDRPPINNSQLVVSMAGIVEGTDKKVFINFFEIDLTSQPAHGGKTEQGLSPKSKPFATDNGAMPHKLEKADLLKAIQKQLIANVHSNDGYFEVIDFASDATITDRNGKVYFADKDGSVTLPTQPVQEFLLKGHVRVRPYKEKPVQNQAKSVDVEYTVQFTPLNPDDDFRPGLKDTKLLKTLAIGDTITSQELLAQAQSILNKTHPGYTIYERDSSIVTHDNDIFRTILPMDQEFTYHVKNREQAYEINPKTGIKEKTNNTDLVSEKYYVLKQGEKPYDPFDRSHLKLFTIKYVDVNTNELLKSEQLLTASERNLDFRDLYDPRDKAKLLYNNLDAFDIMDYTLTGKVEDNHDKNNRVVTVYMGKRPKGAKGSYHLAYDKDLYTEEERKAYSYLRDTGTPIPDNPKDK

Cytochrome P450 2D6 = Cytochrome P450 2D6 (Homo sapiens, UniProt P10635);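 note: CYP2D6 member of a cytochrome P450 panel assay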
Sequence of Cytochrome P450 2D6 (P10635 whole entry): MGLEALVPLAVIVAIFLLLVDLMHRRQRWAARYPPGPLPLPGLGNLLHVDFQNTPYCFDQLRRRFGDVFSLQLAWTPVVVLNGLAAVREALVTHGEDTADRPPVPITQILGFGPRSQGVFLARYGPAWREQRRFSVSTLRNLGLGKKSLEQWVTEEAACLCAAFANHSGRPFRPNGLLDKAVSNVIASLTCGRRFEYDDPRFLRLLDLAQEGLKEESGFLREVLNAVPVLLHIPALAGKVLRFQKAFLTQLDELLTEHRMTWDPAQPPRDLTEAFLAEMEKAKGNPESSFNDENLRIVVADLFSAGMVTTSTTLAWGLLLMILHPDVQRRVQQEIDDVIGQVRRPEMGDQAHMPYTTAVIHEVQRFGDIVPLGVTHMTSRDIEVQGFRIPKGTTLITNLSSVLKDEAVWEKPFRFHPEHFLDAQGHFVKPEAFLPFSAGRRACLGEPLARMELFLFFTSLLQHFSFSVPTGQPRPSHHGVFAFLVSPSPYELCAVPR

Cytochrome P450 2C9 = Cytochrome P450 2C9 (Homo sapiens, UniProt P11712)
Sequence of Cytochrome P450 2C9 (P11712 whole entry): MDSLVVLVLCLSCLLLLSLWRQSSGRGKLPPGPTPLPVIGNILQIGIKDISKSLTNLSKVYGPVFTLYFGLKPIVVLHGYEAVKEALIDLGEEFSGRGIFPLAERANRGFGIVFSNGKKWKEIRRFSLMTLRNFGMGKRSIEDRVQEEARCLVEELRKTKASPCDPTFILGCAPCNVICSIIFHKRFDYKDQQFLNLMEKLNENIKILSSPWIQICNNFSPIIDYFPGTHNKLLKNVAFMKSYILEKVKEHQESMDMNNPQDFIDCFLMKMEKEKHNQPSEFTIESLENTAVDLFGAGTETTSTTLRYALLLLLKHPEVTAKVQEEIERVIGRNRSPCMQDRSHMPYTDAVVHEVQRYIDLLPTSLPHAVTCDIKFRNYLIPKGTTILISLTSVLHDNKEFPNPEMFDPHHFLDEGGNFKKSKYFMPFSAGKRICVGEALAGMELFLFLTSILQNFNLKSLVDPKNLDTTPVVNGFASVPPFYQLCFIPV

Cytochrome P450 3A4 = Cytochrome P450 3A4 (Homo sapiens, UniProt P08684);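 note: CYP3A4 tested as one member of a cytochrome P450 panel screen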
Sequence of Cytochrome P450 3A4 (P08684 whole entry): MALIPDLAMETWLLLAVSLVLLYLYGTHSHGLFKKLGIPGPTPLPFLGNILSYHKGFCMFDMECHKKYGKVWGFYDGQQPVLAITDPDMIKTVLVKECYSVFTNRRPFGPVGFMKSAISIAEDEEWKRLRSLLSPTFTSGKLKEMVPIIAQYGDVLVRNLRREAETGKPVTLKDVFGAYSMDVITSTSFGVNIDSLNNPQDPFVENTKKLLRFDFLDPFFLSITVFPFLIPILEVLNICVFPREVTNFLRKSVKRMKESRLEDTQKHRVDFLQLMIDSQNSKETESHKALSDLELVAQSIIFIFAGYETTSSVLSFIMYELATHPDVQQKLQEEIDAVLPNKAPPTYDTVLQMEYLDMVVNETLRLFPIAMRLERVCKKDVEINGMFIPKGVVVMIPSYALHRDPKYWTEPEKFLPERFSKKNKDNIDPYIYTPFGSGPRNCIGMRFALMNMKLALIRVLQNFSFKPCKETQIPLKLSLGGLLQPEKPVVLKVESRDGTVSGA

[15] = molecular target: T3, Dual specificity protein phosphatase 6 (Rattus norvegicus, UniProt Q64346); format: functional
T3 sequence (Q64346 whole entry): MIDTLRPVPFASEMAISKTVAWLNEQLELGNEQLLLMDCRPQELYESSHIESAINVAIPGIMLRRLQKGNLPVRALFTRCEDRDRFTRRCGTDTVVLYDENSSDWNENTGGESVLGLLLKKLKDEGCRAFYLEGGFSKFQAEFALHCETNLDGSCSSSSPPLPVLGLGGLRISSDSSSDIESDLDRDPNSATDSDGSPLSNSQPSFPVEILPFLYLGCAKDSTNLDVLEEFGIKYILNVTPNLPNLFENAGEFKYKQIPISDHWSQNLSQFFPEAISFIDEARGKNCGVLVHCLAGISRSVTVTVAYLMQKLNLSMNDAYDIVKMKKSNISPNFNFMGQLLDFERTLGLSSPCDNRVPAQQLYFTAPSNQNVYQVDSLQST

[16] = molecular target: Glyceraldehyde-3-phosphate dehydrogenase (Homo sapiens, UniProt P04406)
Sequence of Glyceraldehyde-3-phosphate dehydrogenase (P04406 whole entry): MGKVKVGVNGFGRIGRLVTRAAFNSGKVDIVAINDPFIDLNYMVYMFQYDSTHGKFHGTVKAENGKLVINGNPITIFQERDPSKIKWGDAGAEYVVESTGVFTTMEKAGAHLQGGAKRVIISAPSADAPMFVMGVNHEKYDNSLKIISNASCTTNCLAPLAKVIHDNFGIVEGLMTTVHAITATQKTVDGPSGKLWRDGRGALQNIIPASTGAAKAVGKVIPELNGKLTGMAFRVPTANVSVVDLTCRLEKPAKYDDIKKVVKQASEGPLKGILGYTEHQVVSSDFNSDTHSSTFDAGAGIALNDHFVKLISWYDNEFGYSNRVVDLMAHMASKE

[17] = molecular target: T4, Tyrosine-protein phosphatase non-receptor type 7 (Homo sapiens, UniProt P35236); format: functional
T4 sequence (P35236 whole entry): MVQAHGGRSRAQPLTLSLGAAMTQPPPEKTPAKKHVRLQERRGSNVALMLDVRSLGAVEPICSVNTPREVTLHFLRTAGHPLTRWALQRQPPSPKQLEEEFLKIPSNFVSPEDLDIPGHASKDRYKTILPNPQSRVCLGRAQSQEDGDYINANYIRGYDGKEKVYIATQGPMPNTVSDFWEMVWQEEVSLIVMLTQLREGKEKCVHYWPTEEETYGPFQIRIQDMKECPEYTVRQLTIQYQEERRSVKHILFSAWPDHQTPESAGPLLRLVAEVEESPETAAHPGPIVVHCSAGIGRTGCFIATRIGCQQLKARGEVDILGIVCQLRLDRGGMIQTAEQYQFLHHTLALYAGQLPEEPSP

[18] = molecular target: Heat shock cognate 71 kDa protein (Homo sapiens, UniProt P11142); assay: In Vitro Hsc70 Dose Response Fluorescence Polarization Assay. [Related pubchem assays: 1072 ]
Sequence of Heat shock cognate 71 kDa protein (P11142 whole entry): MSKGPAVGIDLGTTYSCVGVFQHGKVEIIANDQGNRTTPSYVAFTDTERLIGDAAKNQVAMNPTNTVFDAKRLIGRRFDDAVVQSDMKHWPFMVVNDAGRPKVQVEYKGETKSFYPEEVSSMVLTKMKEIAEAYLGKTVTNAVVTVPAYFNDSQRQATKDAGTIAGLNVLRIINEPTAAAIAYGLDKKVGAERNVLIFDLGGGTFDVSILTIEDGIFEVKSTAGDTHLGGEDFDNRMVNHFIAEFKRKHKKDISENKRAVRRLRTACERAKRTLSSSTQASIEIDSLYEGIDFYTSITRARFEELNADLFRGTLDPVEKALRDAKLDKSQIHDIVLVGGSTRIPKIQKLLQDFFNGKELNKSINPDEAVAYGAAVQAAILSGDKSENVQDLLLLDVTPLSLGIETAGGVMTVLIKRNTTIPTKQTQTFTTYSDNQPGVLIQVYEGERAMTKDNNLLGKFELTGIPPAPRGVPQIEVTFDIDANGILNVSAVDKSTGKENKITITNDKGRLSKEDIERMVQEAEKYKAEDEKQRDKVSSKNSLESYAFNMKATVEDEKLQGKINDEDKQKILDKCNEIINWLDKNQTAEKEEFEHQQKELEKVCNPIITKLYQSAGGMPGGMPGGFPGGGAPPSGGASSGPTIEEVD

[19] = molecular target: Heat shock 70 kDa protein 1A (Homo sapiens, UniProt P0DMV8); assay: inhibition of Hsp70 binding activity – biochemical, fluorescence polarization, SAR follow-up (AID 1072)
Sequence of Heat shock 70 kDa protein 1A (P0DMV8 whole entry): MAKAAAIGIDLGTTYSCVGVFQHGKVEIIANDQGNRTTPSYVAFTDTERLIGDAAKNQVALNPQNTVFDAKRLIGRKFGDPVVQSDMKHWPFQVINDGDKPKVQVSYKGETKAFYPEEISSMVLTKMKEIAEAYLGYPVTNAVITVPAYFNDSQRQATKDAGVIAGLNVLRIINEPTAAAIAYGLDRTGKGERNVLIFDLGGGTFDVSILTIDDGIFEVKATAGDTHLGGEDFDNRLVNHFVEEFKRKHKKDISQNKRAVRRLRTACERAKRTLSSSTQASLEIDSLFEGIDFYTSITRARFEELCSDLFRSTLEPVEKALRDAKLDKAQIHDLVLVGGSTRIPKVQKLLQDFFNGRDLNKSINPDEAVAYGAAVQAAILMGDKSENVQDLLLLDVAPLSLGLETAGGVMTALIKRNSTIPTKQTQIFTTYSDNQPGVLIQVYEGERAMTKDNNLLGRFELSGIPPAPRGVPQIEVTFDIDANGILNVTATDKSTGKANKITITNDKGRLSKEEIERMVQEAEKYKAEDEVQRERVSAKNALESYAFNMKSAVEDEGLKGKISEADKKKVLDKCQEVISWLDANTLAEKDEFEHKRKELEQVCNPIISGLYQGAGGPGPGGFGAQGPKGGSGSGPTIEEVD

[20] = molecular target: T3, Dual specificity protein phosphatase 6
Trypsin = Trypsin (Sus scrofa, UniProt P00761); assay: trypsin protease activity blockade – biochemical, quenched peptide fluorescence, cherry-pick, selectivity assay for Rce1 protease inhibitor project, dose response (AID 488789)
Sequence of Trypsin (P00761 whole entry): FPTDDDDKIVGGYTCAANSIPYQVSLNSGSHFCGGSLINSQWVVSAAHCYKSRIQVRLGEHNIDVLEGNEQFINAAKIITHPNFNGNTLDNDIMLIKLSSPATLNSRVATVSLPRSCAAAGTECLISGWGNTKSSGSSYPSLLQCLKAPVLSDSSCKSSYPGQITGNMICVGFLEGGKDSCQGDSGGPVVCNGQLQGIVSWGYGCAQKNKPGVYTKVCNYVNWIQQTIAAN

CAAX prenyl protease 1 = CAAX prenyl protease 1 (Saccharomyces cerevisiae S288c, UniProt P47154); assay: yeast CAAX protease Ste24 inhibition – biochemical, S. cerevisiae, plate reader, cherry-pick, dose response (AID 488815)
Sequence of CAAX prenyl protease 1 (P47154 whole entry): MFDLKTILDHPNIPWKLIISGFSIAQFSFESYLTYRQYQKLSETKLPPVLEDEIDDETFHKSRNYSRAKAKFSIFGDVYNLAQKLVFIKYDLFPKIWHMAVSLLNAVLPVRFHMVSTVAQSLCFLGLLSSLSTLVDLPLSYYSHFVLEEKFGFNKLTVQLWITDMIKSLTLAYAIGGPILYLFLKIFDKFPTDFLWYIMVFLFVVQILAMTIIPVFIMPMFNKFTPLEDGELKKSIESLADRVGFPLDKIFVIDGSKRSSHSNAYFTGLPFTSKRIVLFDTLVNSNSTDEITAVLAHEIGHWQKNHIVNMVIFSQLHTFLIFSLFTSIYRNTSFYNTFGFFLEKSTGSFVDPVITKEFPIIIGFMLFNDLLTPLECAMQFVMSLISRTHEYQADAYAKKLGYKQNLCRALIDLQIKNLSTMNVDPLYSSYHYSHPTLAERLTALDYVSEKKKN

[21] = molecular target: T5, Histone-lysine N-methyltransferase NSD2 (Homo sapiens, UniProt O96028); format: biochemical
T5 sequence (O96028 whole entry): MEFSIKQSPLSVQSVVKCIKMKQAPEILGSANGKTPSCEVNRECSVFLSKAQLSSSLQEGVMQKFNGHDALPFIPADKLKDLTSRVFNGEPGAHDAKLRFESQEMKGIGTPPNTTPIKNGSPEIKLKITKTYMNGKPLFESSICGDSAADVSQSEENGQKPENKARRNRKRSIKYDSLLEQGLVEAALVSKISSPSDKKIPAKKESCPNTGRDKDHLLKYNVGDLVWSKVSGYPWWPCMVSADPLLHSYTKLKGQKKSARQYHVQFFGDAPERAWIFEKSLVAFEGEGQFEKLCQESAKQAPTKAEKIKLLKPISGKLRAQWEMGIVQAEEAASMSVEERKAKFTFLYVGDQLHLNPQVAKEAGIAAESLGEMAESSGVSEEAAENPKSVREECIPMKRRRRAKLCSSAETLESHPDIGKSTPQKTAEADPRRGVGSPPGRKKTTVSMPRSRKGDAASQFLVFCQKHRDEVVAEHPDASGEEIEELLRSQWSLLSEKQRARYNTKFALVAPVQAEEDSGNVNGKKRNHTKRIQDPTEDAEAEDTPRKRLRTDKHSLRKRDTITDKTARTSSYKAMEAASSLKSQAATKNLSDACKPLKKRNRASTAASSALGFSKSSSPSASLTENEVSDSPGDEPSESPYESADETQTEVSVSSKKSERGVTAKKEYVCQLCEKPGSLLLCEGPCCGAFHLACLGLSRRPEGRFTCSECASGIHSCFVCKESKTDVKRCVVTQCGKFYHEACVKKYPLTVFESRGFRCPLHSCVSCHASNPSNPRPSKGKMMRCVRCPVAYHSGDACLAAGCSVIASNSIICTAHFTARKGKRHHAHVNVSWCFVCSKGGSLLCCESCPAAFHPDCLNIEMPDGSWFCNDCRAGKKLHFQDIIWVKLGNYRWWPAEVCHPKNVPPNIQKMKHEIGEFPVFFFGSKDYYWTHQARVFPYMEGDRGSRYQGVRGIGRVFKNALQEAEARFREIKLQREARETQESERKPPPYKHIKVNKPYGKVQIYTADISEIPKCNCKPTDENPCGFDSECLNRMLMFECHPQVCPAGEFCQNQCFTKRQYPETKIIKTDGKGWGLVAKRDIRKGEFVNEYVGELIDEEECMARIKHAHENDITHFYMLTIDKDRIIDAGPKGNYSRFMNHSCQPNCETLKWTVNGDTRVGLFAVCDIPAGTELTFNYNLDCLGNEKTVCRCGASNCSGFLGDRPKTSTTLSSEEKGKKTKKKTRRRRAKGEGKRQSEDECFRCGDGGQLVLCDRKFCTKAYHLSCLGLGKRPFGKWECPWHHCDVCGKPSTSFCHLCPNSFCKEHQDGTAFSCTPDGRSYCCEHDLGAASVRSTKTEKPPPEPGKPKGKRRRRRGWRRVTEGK

[22] = molecular target: T6, Mannose-6-phosphate isomerase (Homo sapiens, UniProt P34949); assay: phosphomannose isomerase inhibition – biochemical, fluorescence intensity, confirmation (AID 1535)
T6 sequence (P34949 whole entry): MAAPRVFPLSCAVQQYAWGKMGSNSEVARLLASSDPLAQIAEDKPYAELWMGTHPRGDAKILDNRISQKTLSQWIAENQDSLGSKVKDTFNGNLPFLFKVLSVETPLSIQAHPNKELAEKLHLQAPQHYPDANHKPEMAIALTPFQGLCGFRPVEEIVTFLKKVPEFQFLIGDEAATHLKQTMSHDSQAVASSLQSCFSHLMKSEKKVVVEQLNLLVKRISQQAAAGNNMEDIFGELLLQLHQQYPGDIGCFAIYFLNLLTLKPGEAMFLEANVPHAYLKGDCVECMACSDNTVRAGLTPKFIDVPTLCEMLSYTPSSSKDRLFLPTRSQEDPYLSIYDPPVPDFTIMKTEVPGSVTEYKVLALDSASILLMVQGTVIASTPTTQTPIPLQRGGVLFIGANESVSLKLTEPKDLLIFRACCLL

Phosphomannomutase 2 = Phosphomannomutase 2 (Homo sapiens, UniProt O15305); assay: Counter screen SAR assay for PMM2 inhibitors via a fluorescence intensity assay. [Related pubchem assays (depositor defined):AID1545, AID1574]
Sequence of Phosphomannomutase 2 (O15305 whole entry): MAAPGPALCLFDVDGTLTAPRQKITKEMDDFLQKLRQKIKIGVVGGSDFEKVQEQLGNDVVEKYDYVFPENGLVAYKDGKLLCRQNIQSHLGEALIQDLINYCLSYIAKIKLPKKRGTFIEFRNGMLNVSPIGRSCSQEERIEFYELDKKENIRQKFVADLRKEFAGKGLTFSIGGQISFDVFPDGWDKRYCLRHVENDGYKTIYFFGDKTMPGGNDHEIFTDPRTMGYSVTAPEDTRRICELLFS

[23] = molecular target: Phosphoethanolamine/phosphocholine phosphatase (Homo sapiens, UniProt Q8TCT1); assay: SAR assay for compounds that inhibit PHOSPHO1. [Related pubchem assays (depositor defined):AID1545, AID1565, AID1574]
Sequence of Phosphoethanolamine/phosphocholine phosphatase (Q8TCT1 whole entry): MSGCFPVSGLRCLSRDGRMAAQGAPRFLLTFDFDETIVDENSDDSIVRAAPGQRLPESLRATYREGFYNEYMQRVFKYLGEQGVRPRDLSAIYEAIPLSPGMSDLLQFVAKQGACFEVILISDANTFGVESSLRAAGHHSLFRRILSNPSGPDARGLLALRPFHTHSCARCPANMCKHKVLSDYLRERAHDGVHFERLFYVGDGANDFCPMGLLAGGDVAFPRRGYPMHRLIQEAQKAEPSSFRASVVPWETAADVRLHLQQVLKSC

COc1cccc2sc(Nc3nnc(-c4cccs4)o3)nc12
CC50 [1]: 27.8 µM (active)
CC50 [2]: > 20 µM (active)
EC50 [3]: 2.96 µM (active)
CC50 [4]: 11.2 µM (active)
CC50 [5]: 11.1 µM (active)
EC50 [6]: 415 nM (active)
IC50 [7]: 15.6 µM (active)

Cc1ccccc1-c1nc(-c2ccccn2)no1
AC50 [8]: 4.18 µM (active)
AC50 [9]: 1.8 µM (active)
AC50 [10]: 23 µM (active)
AC50 [11]: 17.1 µM (active)
AC50 [12]: 1.81 µM (active)
AC50 (A-375): 14.8 µM (active)
AC50 [13]: 12.9 µM (active)

Cc1ccc(NC(=O)NCc2ccccn2)cc1Cl
EC50 (Streptococcus): > 150 µM (not active)
AC50 (Escherichia coli): 343 µM (active)
EC50 [14]: > 150 µM (not active)
EC50 (Streptokinase A): > 150 µM (not active)

CCSc1nc(O)c2c3c(sc2n1)COC(C)(CC)C3 (stereo not drawn)
AC50 (Cytochrome P450 2D6): inconclusive
AC50 (Cytochrome P450 2C9): 2.82 µM (inconclusive)
AC50 (Cytochrome P450 3A4): inconclusive

CCOc1cc2c(c([N+](=O)[O-])c1)NC(C(=O)O)C1CC=CC21 (stereo not drawn)
IC50 [15]: > 100 µM (inactive)
IC50 [16]: > 100 µM (not active)
IC50 [17]: > 100 µM (not active)
IC50 [18]: > 100 µM (not active)
IC50 [19]: > 100 µM (not active)
IC50 [20]: > 100 µM (inactive)

CCN(CC)CCCNc1cc(C)nc2cc(-c3cccs3)nn12
AC50 (Trypsin): 19.4 µM (active)
AC50 (CAAX prenyl protease 1): 6.24 µM (active)
AC50 [21]: > 20 µM (inactive)

O=c1c2c(OCC(F)(F)F)cc([N+](=O)[O-])cc2sn1-c1ccc(F)cc1
IC50 [22]: 26.1 µM (active)
IC50 (Phosphomannomutase 2): > 100 µM (inactive)
IC50 [23]: 577 nM (active)
